Test results taken from patent US20250250230A1, “HETEROCYCLIC COMPOUND” (TAKEDA PHARMACEUTICAL COMPANY LIMITED, priority 2022, published 2025).

Molecular target: T1, human orexin type 2 receptor (Homo sapiens, UniProt O43614)
T1 construct: expressed in transfected cells
T1 sequence (O43614 1-444): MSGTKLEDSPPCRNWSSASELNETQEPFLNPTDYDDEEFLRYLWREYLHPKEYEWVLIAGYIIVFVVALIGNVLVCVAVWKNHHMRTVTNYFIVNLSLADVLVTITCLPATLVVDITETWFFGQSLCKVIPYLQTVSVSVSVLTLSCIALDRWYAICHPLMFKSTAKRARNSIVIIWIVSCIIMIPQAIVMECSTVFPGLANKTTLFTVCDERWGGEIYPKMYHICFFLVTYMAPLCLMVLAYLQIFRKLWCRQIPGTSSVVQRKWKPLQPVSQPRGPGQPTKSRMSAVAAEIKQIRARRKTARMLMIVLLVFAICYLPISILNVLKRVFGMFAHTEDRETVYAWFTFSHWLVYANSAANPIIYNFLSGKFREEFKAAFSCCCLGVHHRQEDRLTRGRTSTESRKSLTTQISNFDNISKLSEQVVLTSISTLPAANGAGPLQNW
Test: Measurement of orexin type 2 receptor agonist activity (calcium fluorescence, Fluo-4 AM, FDSS)
Assay type: cell-based
Details: test compound 3 μM; CHO cells expressing human OX2 receptor; DMSO = 0%, orexin A (human) = 100%
From the text: To obtain a cell clone stably expressing human orexin type 2 receptor, human orexin type 2 receptor cDNA was inserted into pcDNA3.1(+) plasmid vector (Invitrogen), and a plasmid DNA for expression of human orexin type 2 receptor (pcDNA3.1(+)/hOX2R) was cloned. The plasmid DNA was introduced into CHO-K1 cell by an electroporation method, and human orexin type 2 receptor expressing clone cells were obtained by limiting dilution method by using G418 drug resistance as a selection marker.
CHO cells forcibly expressing human OX2 receptor were seeded in each well of 384 well black transparent bottom plate (BD Falcon) at 10,000 cells/well, and cultured for one day in a 5% CO2 incubator at 37° C. After removal of the medium in the cell plate, assay buffer A containing a calcium indicator (HBSS (Thermo Fisher Scientific), 20 mM HEPES (Thermo Fisher Scientific), 0.1% BSA (Sigma-Aldrich), 2.5 μg/mL Fluo-4 AM (DOJINDO Chemical), 0.08% Pluronic F127 (DOJINDO Chemical), 1.25 mM probenecid (DOJINDO Chemical)) was added at 30 μL/well. The plate was stood for 30 min in a 5% CO2 incubator at 37° C., and further stood at room temperature for 30 min. A test compound prepared by diluting with assay buffer B (HBSS, 20 mM HEPES, 0.1% BSA) was added at 10 μL/well, and the fluorescence value was measured by FDSSμCELL (Hamamatsu Photonics K.K.) every one sec for 1 min, and thereafter every two sec for […]. The activity (%) of the test compound was calculated assuming that variation in the fluorescence value when DMSO was added instead of the test compound was 0%, and variation in the fluorescence value when orexin A (human) (PEPTIDE INSTITUTE, INC.) was added at the final concentration of 10 nM was 100%.

Cc1nnc(C2(NS(C)(=O)=O)CCN(C(=O)[C@@H]3C[C@@]3(F)c3ccccc3-c3c(F)cccc3F)C2)o1 (mixture of isomers) [Example 422, a mixture of N-[(3R)-1-[(1S,2S)-2-(2′,6′-difluoro[1,1′-biphenyl]-2-yl)-2-fluorocyclopropane-1-carbonyl]-3-(5-methyl-1,3,4-oxadiazol-2-yl)pyrrolidin-3-yl]methanesulfonamide and N-[(3S)-1-[(1S,2S)-2-(2′,6′-difluoro[1,1′-biphenyl]-2-yl)-2-fluorocyclopropane-1-carbonyl]-3-(5-methyl-1,3,4-oxadiazol-2-yl)pyrrolidin-3-yl]methanesulfonamide]
OX2R agonist activity (3 μM, %): 75%

Cc1cccc(F)c1-c1ccccc1C1CC1C(=O)N1CCC(NS(C)(=O)=O)C1 (racemic) [Example 3, a mixture of rac-N-{(3R)-1-[(1R,2R)-2-(2′-fluoro-6′-methyl[1,1′-biphenyl]-2-yl)cyclopropane-1-carbonyl]pyrrolidin-3-yl}methanesulfonamide and rac-N-{(3S)-1-[(1R,2R)-2-(2′-fluoro-6′-methyl[1,1′-biphenyl]-2-yl)cyclopropane-1-carbonyl]pyrrolidin-3-yl}methanesulfonamide]
OX2R agonist activity (3 μM, %): 81%

CS(=O)(=O)NC1CCN(C(=O)C2CC2c2ccccc2-c2c(F)cccc2F)C1 (racemic) [Example 4, a mixture of rac-N-{(3R)-1-[(1R,2R)-2-(2′,6′-difluoro[1,1′-biphenyl]-2-yl)cyclopropane-1-carbonyl]pyrrolidin-3-yl}methanesulfonamide and rac-N-{(3S)-1-[(1R,2R)-2-(2′,6′-difluoro[1,1′-biphenyl]-2-yl)cyclopropane-1-carbonyl]pyrrolidin-3-yl}methanesulfonamide]
OX2R agonist activity (3 μM, %): 102%

CS(=O)(=O)NC1CCN(C(=O)C2CC2c2ccccc2-c2ccc(F)cc2F)C1 (racemic) [Example 10, a mixture of rac-N-{(3R)-1-[(1R,2R)-2-(2′,4′-difluoro[1,1′-biphenyl]-2-yl)cyclopropane-1-carbonyl]pyrrolidin-3-yl}methanesulfonamide and rac-N-{(3S)-1-[(1R,2R)-2-(2′,4′-difluoro[1,1′-biphenyl]-2-yl)cyclopropane-1-carbonyl]pyrrolidin-3-yl}methanesulfonamide]
OX2R agonist activity (3 μM, %): 80%

CS(=O)(=O)NC1CCN(C(=O)C2CC2c2ccccc2-c2ccccc2F)C1 (racemic) [Example 12, a mixture of rac-N-{(3R)-1-[(1R,2R)-2-(2′-fluoro[1,1′-biphenyl]-2-yl)cyclopropane-1-carbonyl]pyrrolidin-3-yl}methanesulfonamide and rac-N-{(3S)-1-[(1R,2R)-2-(2′-fluoro[1,1′-biphenyl]-2-yl)cyclopropane-1-carbonyl]pyrrolidin-3-yl}methanesulfonamide]
OX2R agonist activity (3 μM, %): 66%

CS(=O)(=O)NC1CCN(C(=O)C2CC2c2ccccc2-c2c(F)cccc2Cl)C1 (racemic) [Example 15, a mixture of rac-N-{(3R)-1-[(1R,2R)-2-(2′-chloro-6′-fluoro[1,1′-biphenyl]-2-yl)cyclopropane-1-carbonyl]pyrrolidin-3-yl}methanesulfonamide and rac-N-{(3S)-1-[(1R,2R)-2-(2′-chloro-6′-fluoro[1,1′-biphenyl]-2-yl)cyclopropane-1-carbonyl]pyrrolidin-3-yl}methanesulfonamide]
OX2R agonist activity (3 μM, %): 92%

CS(=O)(=O)NC1CCN(C(=O)C2CC2c2c(F)cccc2-c2c(F)cccc2F)C1 (racemic) [Example 26, a mixture of rac-N-{(3R)-1-[(1R,2R)-2-(2′,3,6′-trifluoro[1,1′-biphenyl]-2-yl)cyclopropane-1-carbonyl]pyrrolidin-3-yl}methanesulfonamide and rac-N-{(3S)-1-[(1R,2R)-2-(2′,3,6′-trifluoro[1,1′-biphenyl]-2-yl)cyclopropane-1-carbonyl]pyrrolidin-3-yl}methanesulfonamide]
OX2R agonist activity (3 μM, %): 104%

CCS(=O)(=O)NC1CCN(C(=O)C2CC2c2ccccc2-c2c(F)cccc2F)C1 (racemic) [Example 27, a mixture of rac-N-{(3R)-1-[(1R,2R)-2-(2′,6′-difluoro[1,1′-biphenyl]-2-yl)cyclopropane-1-carbonyl]pyrrolidin-3-yl}ethanesulfonamide and rac-N-{(3S)-1-[(1R,2R)-2-(2′,6′-difluoro[1,1′-biphenyl]-2-yl)cyclopropane-1-carbonyl]pyrrolidin-3-yl}ethanesulfonamide]
OX2R agonist activity (3 μM, %): 98%

CCS(=O)(=O)NC1CCCN(C(=O)C2CC2c2ccccc2-c2c(F)cccc2F)C1 (racemic) [Example 28, a mixture of rac-N-{(3R)-1-[(1R,2R)-2-(2′,6′-difluoro[1,1′-biphenyl]-2-yl)cyclopropane-1-carbonyl]piperidin-3-yl}ethanesulfonamide and rac-N-{(3S)-1-[(1R,2R)-2-(2′,6′-difluoro[1,1′-biphenyl]-2-yl)cyclopropane-1-carbonyl]piperidin-3-yl}ethanesulfonamide]
OX2R agonist activity (3 μM, %): 103%

CS(=O)(=O)NC1CCCN(C(=O)C2CC2c2c(F)cccc2-c2c(F)cccc2F)C1 (racemic) [Example 31, a mixture of rac-N-{(3R)-1-[(1R,2R)-2-(2′,3,6′-trifluoro[1,1′-biphenyl]-2-yl)cyclopropane-1-carbonyl]piperidin-3-yl}methanesulfonamide and rac-N-{(3S)-1-[(1R,2R)-2-(2′,3,6′-trifluoro[1,1′-biphenyl]-2-yl)cyclopropane-1-carbonyl]piperidin-3-yl}methanesulfonamide]
OX2R agonist activity (3 μM, %): 101%

CS(=O)(=O)NC1CCCN(C(=O)C2CC2c2c(F)cccc2-c2c(F)cccc2F)CC1 (racemic) [Example 32, a mixture of rac-N-{(4R)-1-[(1R,2R)-2-(2′,3,6′-trifluoro[1,1′-biphenyl]-2-yl)cyclopropane-1-carbonyl]azepan-4-yl}methanesulfonamide and rac-N-{(4S)-1-[(1R,2R)-2-(2′,3,6′-trifluoro[1,1′-biphenyl]-2-yl)cyclopropane-1-carbonyl]azepan-4-yl}methanesulfonamide]
OX2R agonist activity (3 μM, %): 102%

O=C(C1CC1c1ccccc1-c1c(F)cccc1F)N1CCC(NS(=O)(=O)C2CC2)C1 (racemic) [Example 37, a mixture of rac-N-{(3R)-1-[(1R,2R)-2-(2′,6′-difluoro[1,1′-biphenyl]-2-yl)cyclopropane-1-carbonyl]pyrrolidin-3-yl}cyclopropanesulfonamide and rac-N-{(3S)-1-[(1R,2R)-2-(2′,6′-difluoro[1,1′-biphenyl]-2-yl)cyclopropane-1-carbonyl]pyrrolidin-3-yl}cyclopropanesulfonamide]
OX2R agonist activity (3 μM, %): 101%

CS(=O)(=O)NC1CCCN(C(=O)C2CC2c2ccccc2-c2c(F)cccc2F)CC1 (racemic) [Example 38, a mixture of rac-N-{(4R)-1-[(1R,2R)-2-(2′,6′-difluoro[1,1′-biphenyl]-2-yl)cyclopropane-1-carbonyl]azepan-4-yl}methanesulfonamide and rac-N-{(4S)-1-[(1R,2R)-2-(2′,6′-difluoro[1,1′-biphenyl]-2-yl)cyclopropane-1-carbonyl]azepan-4-yl}methanesulfonamide]
OX2R agonist activity (3 μM, %): 106%

CS(=O)(=O)NC1CCCN(C(=O)C2CC2c2ccccc2-c2c(F)cccc2F)C1 (racemic) [Example 39, a mixture of rac-N-{(3R)-1-[(1R,2R)-2-(2′,6′-difluoro[1,1′-biphenyl]-2-yl)cyclopropane-1-carbonyl]piperidin-3-yl}methanesulfonamide and rac-N-{(3S)-1-[(1R,2R)-2-(2′,6′-difluoro[1,1′-biphenyl]-2-yl)cyclopropane-1-carbonyl]piperidin-3-yl}methanesulfonamide]
OX2R agonist activity (3 μM, %): 102%
